Data as given in patent US20220218806A1, “PEPTIDES AND CONJUGATES FOR TREATMENT OF ARTHRITIS” (CRL-SCI Corporation, priority 2019, published 2022).
“Also recorded” adds a separate entry of the source. Where two headings read alike, the source gives them in different places. Square brackets hold non-standard residues; d marks the D form. Ends that are not written are not given here. Cit = NC(=O)NCCC[C@H](N)C(=O)O

Legend:
[1] = in humans; cited from earlier work
[2] = in mice; cited from earlier work
[3] = test system: beDerG-PG70, bePG275cit, beOVA-OR8, beDerG-PG275cit, bePG70, beDerG-GGG; assay: Serum anti-LEAPS peptide antibody ELISA (biotinylated peptides on NeutrAvidin plates); type: in vivo, BALB/c mice; settings: sera of vaccinated mice, day 35
GIA model of RA [4] = assay: Histopathology of hind limbs (ankles, hind paws) of diseased mice after vaccination; type: in vivo, BALB/c mice
GIA model of RA [5] = assay: Visual arthritis score (VAS) after therapeutic LEAPS vaccination in rhG1-induced arthritis; type: in vivo, BALB/c mice; settings: overall conclusion
CD4+ spleen T cells = assay: Intracellular cytokines and FoxP3 in spleen T cells by flow cytometry; type: cell-based, BALB/c mice
Description: (§1) Animals were euthanized on day 35 after the first control or LEAPS vaccination, and sera was collected. For histopathology, hind limbs (from 5 mice/treatment groups plus 3 normal mice limbs) were dissected and fixed in 10% buffered formalin. The specimens were embedded in paraffin and sectioned. Adjacent tissue sections were stained separately with TB and HE. Microscopic analysis and scoring of joint damage were carried out independently under code by Bolder BioPath. Serum anti-LEAPS peptide antibody levels were determined by ELISA using Neutavidin plates and Biotin labeled peptides for loading onto plates. To determine cytokine production by spleen cell cultures, after a 4-day stimulation of spleen cells with 7.5 μg/ml rhG1 (or no treatment as control), cytokines secreted into the culture media were assayed by MagPix as 9-plex or 6-plex kits from R&D Systems. For intracellular cytokines and FoxP3 detection, spleen cells from 5 mice from each group were cultured with rhG1 for 4 days. The cells were treated with PMA, ionomycin, and GolgiStop for 4 hours, stained for cell surface markers and intracellular cytokines or Foxp3. Samples were run on a FACS Canto flow cytometer and the results analyzed by FACS Diva software. Statistical analysis of data was done using GraphPad Prism 7 software package. Nonparametric and multiple comparison test were conducted as described. […]

spleen cells = assay: Cytokines secreted by rhG1-stimulated spleen cell cultures (MagPix); type: cell-based, BALB/c mice; settings: 7.5 μg/ml rhG1 4 days, stimulated less non-stimulated
Description: as §1

[6] = ankles, 40x magnification, day 35
[7] = hind paws, digit joints, 16x magnification

In the case of “MDMCSAGWLADCitSVR-amide (MDMCSAGWLAD[Cit]SVR-NH2; not fully specified) [PG275Cit]”, the Immunogenicity of epitope [1] is given as “more immunogenic than PG275” and the Immunogenicity of epitope [2] is given as “more immunogenic than PG275”.

For “DGQEEKAGVVSTGLIGGGMDMCSAGWLADCitSVR-amide (DGQEEKAGVVSTGLIGGGMDMCSAGWLAD[Cit]SVR-NH2; not fully specified) [DerG-PG275Cit]”, the “Serum antibodies to vaccine peptides (OD 450 nm)” value [3] was “does not induce antibodies to either DerG or PG275Cit or the conjugate; also recorded: induced antibodies against neither the DerG element nor the PG275Cit element”, the “Cartilage damage, ankle histopathology” value (GIA model of RA [4]; [6]) was “mild” and the “Inflammation, ankle histopathology” value (GIA model of RA [4]; [6]) was “moderate”. For the same substance, the “Joints affected, ankle histopathology” value (GIA model of RA [4]; [6]) was “the ankle and several digit joints”, the “Joints affected, hind paw histopathology” value (GIA model of RA [4]; hind paws, 16x magnification) was “several digit joints” and the “Cartilage damage, hind paw histopathology” value (GIA model of RA [4]; [7]) was “mild”. The “Inflammation, hind paw histopathology” value (GIA model of RA [4]; [7]) was “moderate”, the “Therapeutic effect / protection in the GIA model of RA” value (GIA model of RA [5]) was “therapeutic in the GIA model of RA with high efficacy” and the “Treg cell activation (FoxP3)” value (CD4+ spleen T cells; CD4+ spleen T cells, rhG1 4 days) was “appeared to activate Treg cells”. For the same substance, the “Net secreted IFNγ” value (spleen cells) was “induced” and the “Net secreted IL17A” value (spleen cells) was “induced”.

For “ATEGRVRVNSAYQDK-amide (ATEGRVRVNSAYQDK-NH2) [PG70, proteoglycan aggrecan (G1) residues 70-84]”, the Immunogenicity of epitope [2] is listed as “more immunogenic than PG70Cit”.

In the case of “GQEEKAGVVSTGLIGGGMDMCSAGWLADRSVR-NH2 [DerG-PG275]”, the “Therapeutic effect / protection in the GIA model of RA” value (GIA model of RA [5]) is reported as “can provide protection alone” and the “Modulation of Th2, Treg, Th1 cells and cytokines” value (CD4+ spleen T cells; overall conclusion) is reported as “does not appear to up modulate Th2 or Treg or Th1 cells or cytokines”.
